Measured values as given in US20240390383A1, “DIOXAZINES AND THEIR USE IN TREATMENT OF GBA-RELATED DISEASES” (ZEVRA DENMARK A/S, priority 2021, published 2024).

Target: T1, GCase (GBA) in human fibroblast cell line GM10915 harboring the L444P GBA mutation (Homo sapiens, UniProt P04062, L483P)
T1 construct: Human fibroblast cell line GM10915 harboring the L444P GBA mutation; host or cells: GM10915 human fibroblasts
T1 sequence (P04062 40-536 L483P): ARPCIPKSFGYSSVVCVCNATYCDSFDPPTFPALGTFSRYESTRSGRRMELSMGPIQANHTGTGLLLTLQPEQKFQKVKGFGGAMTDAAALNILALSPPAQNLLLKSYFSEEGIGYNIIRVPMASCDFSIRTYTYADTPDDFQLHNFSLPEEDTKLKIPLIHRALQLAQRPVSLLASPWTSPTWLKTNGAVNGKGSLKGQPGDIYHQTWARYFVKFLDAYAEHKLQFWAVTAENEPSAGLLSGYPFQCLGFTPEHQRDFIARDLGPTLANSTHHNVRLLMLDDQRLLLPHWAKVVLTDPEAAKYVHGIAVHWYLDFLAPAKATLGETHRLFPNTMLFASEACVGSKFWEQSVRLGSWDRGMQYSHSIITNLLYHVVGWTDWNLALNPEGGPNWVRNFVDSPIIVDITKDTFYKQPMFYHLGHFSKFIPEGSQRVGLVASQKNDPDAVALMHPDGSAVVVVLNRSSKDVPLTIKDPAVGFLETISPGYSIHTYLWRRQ
Experiment: GCase activity assay (4-MUG substrate, normalised to crystal violet staining) in L444P GBA fibroblasts
Format: cell-based
Details: 5 days exposure; for GBA EC1.5: concentration giving 150% GCase activity (1.5-fold induction), 8-point dose range
Summary of the method: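 Patient fibroblasts GM10915 (L444P GBA) exposed to compounds for five days over an 8-point range, with fresh dosing every 2–3 days. Intact-cell GCase measured with 2.5 mM 4-MUG at pH 4.0 for 23 h at 37 °C (ex/em 365/445 nm), normalised to crystal violet, as % of PBS basal; Emax is the maximum reached.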

[1] = maximum percent GCase activity relative to untreated cells in the dose range tested

Row | SMILES | GBA EC1.5 [µM] | GBA Emax [1] [%] | Emax [1] [%]
1 | CC1(C2=NOC[C@@H](CN3CCCCC3)O2)CCNCC1 [compound 892] | 13 | 274 | –
2 | CN1CCO[C@@H]2CN(CC3CON=C(C4(C)CCNCC4)O3)C[C@@H]21 (some centres unmarked) [compound 604] | 50 | – | 119
3 | CC1(C2=NOCC(CN3CCC(F)(F)CC3)O2)CCNCC1 (racemic) [compound 673, rac-5-((4,4-difluoropiperidin-1-yl)methyl)-3-(4-methylpiperidin-4-yl)-5,6-dihydro-1,4,2-dioxazine] | 49 | – | 151
4 | C1CCN(CC2CON=C(CC3CNCCO3)O2)CC1 (centres unmarked) [compound 863] | 6 | – | 253
5 | c1cncc(CC2(C3=NOCC(CN4CCCCC4)O3)CCOCC2)c1 (centres unmarked) [compound 552] | 50 | – | 115
6 | Nc1ccc(N2CCC(C3=NOCC(CN4CCCCC4)O3)C2)nc1 (centres unmarked) [compound 698] | 50 | – | 137
7 | C1CCN(CC2CON=C(C3CC4CNCC3O4)O2)CC1 (centres unmarked) [compound 862] | 15 | – | 212
8 | COCCC1(C2=NOCC(CN3CCCCC3)O2)CCNC1 (racemic) [compound 685, rac-3-(3-(2-methoxyethyl)pyrrolidin-3-yl)-5-(piperidin-1-ylmethyl)-5,6-dihydro-1,4,2-dioxazine] | 12 | – | 270
9 | c1cncc(CC2(C3=NOCC(CN4CCCCC4)O3)CCNC2)c1 (racemic) [compound 643, rac-5-(piperidin-1-ylmethyl)-3-(3-(pyridin-3-ylmethyl)pyrrolidin-3-yl)-5,6-dihydro-1,4,2-dioxazine] | 18 | – | 178
10 | c1ccc(N2CCCC(C3=NOCC(CN4CCCCC4)O3)C2)nc1 (centres unmarked) [compound 661] | 50 | – | 140
11 | O[C@@H]1CC[C@@H](C2=NOCC(CN3CCCCC3)O2)C1 (some centres unmarked) [compound 704] | 50 | – | 117
12 | CC1(C2=NOCC(CN3CCNC(C(F)(F)F)CC3)O2)CCNCC1 (racemic) [compound 500, rac-3-(4-methylpiperidin-4-yl)-5-((5-(trifluoromethyl)-1,4-diazepan-1-yl)methyl)-5,6-dihydro-1,4,2-dioxazine] | 14 | – | 166
13 | C1CCN(CC2CON=C([C@@]34CNC[C@@H]3C4)O2)CC1 (relative stereo) [compound 482, rac-rel-trans-3-((1R,5R)-3-azabicyclo[3.1.0]hexan-1-yl)-5-(piperidin-1-ylmethyl)-5,6-dihydro-1,4,2-dioxazine] | 14 | – | 268
14 | CN(C)C(=O)N1CCCC(C2=NOCC(CN3CCCCC3)O2)C1 (centres unmarked) [compound 670] | 50 | – | 126
15 | C1CCN(CCC2=NOC[C@@H](CN3CCCCC3)O2)CC1 [compound 890] | 8 | – | 168
16 | N[C@H]1CN[C@H](C2=NOCC(CN3CCCCC3)O2)C1 (some centres unmarked) [compound 597] | 50 | – | 106
17 | Nc1ccc(N2CCCC(C3=NOCC(CN4CCCCC4)O3)C2)nc1 (centres unmarked) [compound 687] | 50 | – | 110
18 | CN1CC[C@@H]2CN(CC3CON=C(C4(C)CCNCC4)O3)C[C@@H]21 (some centres unmarked) [compound 555] | 50 | – | 114
19 | COC1CN(C(C)C)CCC1C1=NOCC(CN2CCCCC2)O1 (racemic) [compound 714, rac-3-(1-isopropyl-3-methoxypiperidin-4-yl)-5-(piperidin-1-ylmethyl)-5,6-dihydro-1,4,2-dioxazine] | 16 | – | 213
20 | CC1(C2=NOCC(CN3CCCCC3)O2)CCCN1 (racemic) [compound 566, rac-3-(2-methylpyrrolidin-2-yl)-5-(piperidin-1-ylmethyl)-5,6-dihydro-1,4,2-dioxazine] | 36 | – | 164

Row | SMILES | GBA EC1.5 [µM] | GBA Emax [1] [%] | Emax [1] [%]
21 | CC(C)(C1=NOCC(CN2CCCCC2)O1)C1CCCNC1 (racemic) [compound 473, rac-5-(piperidin-1-ylmethyl)-3-(2-(piperidin-3-yl)propan-2-yl)-5,6-dihydro-1,4,2-dioxazine di-2,2,2-trifluoroacetate] | 9 | – | 181
22 | COc1ncc(CC2(C3=NOC(C)C(CN4CCCCC4)O3)CCN(C)C2)cc1Cl (centres unmarked) [compound 646] | 50 | – | 112
23 | CC(C)N1CCCC(C2=NOCC(CN3CCCCC3)O2)C1 (racemic) [compound 709, rac-3-(1-isopropylpiperidin-3-yl)-5-(piperidin-1-ylmethyl)-5,6-dihydro-1,4,2-dioxazine] | 22 | – | 178
24 | CN1C(=O)CC(C2=NOCC(CN3CCCCC3)O2)c2ccccc21 (centres unmarked) [compound 664] | 50 | – | 137
25 | COC1CNC(C)(C2=NOCC(CN3CCCCC3)O2)C1 (racemic) [compound 565, rac-3-(4-methoxy-2-methylpyrrolidin-2-yl)-5-(piperidin-1-ylmethyl)-5,6-dihydro-1,4,2-dioxazine] | 37 | – | 168
26 | COc1cncc(CNCCC2=NOCC(CN3CCCCC3)O2)c1 (racemic) [compound 806, rac-N-((5-methoxypyridin-3-yl)methyl)-2-(5-(piperidin-1-ylmethyl)-5,6-dihydro-1,4,2-dioxazin-3-yl)ethan-1-amine] | 40 | – | 183
27 | CN(C)CC1(C2=NOCC(CN3CCCCC3)O2)CCN(C)C1 (racemic) [compound 826, rac-N,N-dimethyl-1-(1-methyl-3-(5-(piperidin-1-ylmethyl)-5,6-dihydro-1,4,2-dioxazin-3-yl)pyrrolidin-3-yl)methanamine] | 7 | – | 190
28 | CN1CCC2CN(CC3CON=C(C4(C)CCNCC4)O3)CC2C1 (centres unmarked) [compound 602] | 50 | – | 121
29 | CC(C)C1ON=C(C2CCNC2)OC1CN(C)C (racemic) [compound 713, rac-1-(6-isopropyl-3-(pyrrolidin-3-yl)-5,6-dihydro-1,4,2-dioxazin-5-yl)-N,N-dimethylmethanamine] | 28 | – | 212
30 | CC(C)C1ON=C(C2CCNCC2)OC1CN1CCCCC1 (racemic) [compound 706, rac-6-isopropyl-5-(piperidin-1-ylmethyl)-3-(piperidin-4-yl)-5,6-dihydro-1,4,2-dioxazine] | 6 | – | 180
31 | COC1CN(C)CC1C1=NOCC(CN2CCCCC2)O1 (racemic) [compound 821, rac-3-(4-methoxy-1-methylpyrrolidin-3-yl)-5-(piperidin-1-ylmethyl)-5,6-dihydro-1,4,2-dioxazine] | 29 | – | 213
32 | CC(C)N1CCC(C2=NOCC(CN3CCCCC3)O2)CC1 (racemic) [compound 719, rac-3-(1-isopropylpiperidin-4-yl)-5-(piperidin-1-ylmethyl)-5,6-dihydro-1,4,2-dioxazine] | 10 | – | 242
33 | Nc1ccc(N2CCC(C3=NOCC(CN4CCCCC4)O3)CC2)nc1 (centres unmarked) [compound 679] | 50 | – | 107
34 | COc1ncc(CC2(C3=NOCC(CN4CCCCC4)O3)CCNCC2)cc1Cl (centres unmarked) [compound 545] | 1 | – | 140
35 | CC(N)C(=O)N1CCC(C2=NOCC(CN3CCCCC3)O2)C1 (racemic) [compound 691, rac-2-amino-1-(3-(5-(piperidin-1-ylmethyl)-5,6-dihydro-1,4,2-dioxazin-3-yl)pyrrolidin-1-yl)propan-1-one] | 25 | – | 252
36 | COc1ccc(C2(C3=NOCC(CN4CCCCC4)O3)CCNCC2)nc1 (centres unmarked) [compound 852] | 4 | – | 203
37 | NCC(=O)N1CCC(C2=NOCC(CN3CCCCC3)O2)C1 (racemic) [compound 699, rac-2-amino-1-(3-(5-(piperidin-1-ylmethyl)-5,6-dihydro-1,4,2-dioxazin-3-yl)pyrrolidin-1-yl)ethan-1-one] | 38 | – | 203
38 | CN(C)CCCC1=NOCC(CN2CCCCC2)O1 (racemic) [compound 768, rac-N,N-dimethyl-3-(5-(piperidin-1-ylmethyl)-5,6-dihydro-1,4,2-dioxazin-3-yl)propan-1-amine] | 6 | – | 238
39 | COCCC1(C2=NOCC(CN3CCCCC3)O2)CCN(C)C1 (racemic) [compound 701, rac-3-(3-(2-methoxyethyl)-1-methylpyrrolidin-3-yl)-5-(piperidin-1-ylmethyl)-5,6-dihydro-1,4,2-dioxazine] | 21 | – | 225
40 | CN(C)C(=O)CN1CCCC(C2=NOCC(CN3CCCCC3)O2)C1 (racemic) [compound 710, rac-N,N-dimethyl-2-(3-(5-(piperidin-1-ylmethyl)-5,6-dihydro-1,4,2-dioxazin-3-yl)piperidin-1-yl)acetamide] | 28 | – | 234
